The source of these data is article PMC8317135 (Journal of medicinal chemistry, 2021).

Series [1] concerns CCI-induced mechano-allodynia. Conditions: mouse; cited from earlier work.
Series [2] concerns eosinophils in the bronchoalveolar lavage fluid (BALF). In words: Ovalbumin/Aspergillus protease mouse model of allergic asthma, BALF leukocytes. The class given is in vivo. Conditions: 2 days post-challenge; for eosinophil counts in the BALF / efficacy in asthma model: 20 μmol kg^−1, i.p. prior to allergen challenge.
The next series deals with hERG (Homo sapiens, UniProt Q12809). The series is described as follows: cell-based.
Series [3] concerns the target T1, hP2Y14R (Homo sapiens, UniProt Q15391).
T1 sequence (Q15391 1-338): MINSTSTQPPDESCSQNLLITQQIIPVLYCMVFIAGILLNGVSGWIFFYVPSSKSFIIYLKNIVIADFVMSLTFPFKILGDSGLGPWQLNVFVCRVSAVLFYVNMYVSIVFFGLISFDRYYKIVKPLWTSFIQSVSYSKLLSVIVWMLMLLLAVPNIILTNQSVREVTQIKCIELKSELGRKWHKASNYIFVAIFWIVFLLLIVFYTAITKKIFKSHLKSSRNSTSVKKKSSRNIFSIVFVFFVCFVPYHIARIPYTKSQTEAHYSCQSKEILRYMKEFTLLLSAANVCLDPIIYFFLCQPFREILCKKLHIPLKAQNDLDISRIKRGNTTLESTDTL
Conditions: for hP2Y14R affinity in words: hP2Y14R-expressing CHO cells, tracer 2.

Series [4] deals with 46 receptors and channels. The series is described as follows: PDSP off-target radioligand binding screen. Conditions: radioligand binding at 46 receptors and channels.
Series [5] concerns the target T1, hP2Y14R. The series is described as follows: cell-based. Conditions: IC50 / affinity at hP2Y14R (μM), hP2Y14R-expressing CHO cells, tracer 2.
The target in the next series is DOR (δ-opioid receptor) (Homo sapiens, UniProt P41143). The series is described as follows: PDSP radioligand binding, DOR.
Series [6] can be described thus: Lipophilicity based on HPLC retention time. Format: physicochemical. Conditions: relative to 1a.
Test in series [7]: not given
This is another data set of the same source.

A further series is described as follows: in vivo. Conditions: male, Wistar, rat.
In series [8] the test system is CCI-induced mechano-allodynia. The series is described as follows: Chronic constriction injury. Conditions: mouse.
Series [9] concerns porcine liver esterase (PLE). The series is described as follows: Esterase cleavage of prodrugs by porcine liver esterase. Conditions: for percent cleavage at 72 h: pH 7.3 aqueous medium, PLE, 37 °C; for half-life at 1 mM: pig, pH 7.3.
[10] abbreviates: male Wistar rats, 1.0 mg kg^−1 i.p.
The mark [11] stands for this setting: male Wistar rats, 3.0 mg kg^−1 i.p.
Setting [12] is: male Wistar rats, 10 mg kg^−1 i.p.

“Also recorded” adds a separate entry of the source. Where two headings read alike, the source gives them in different places.

Chain of hERG (Q12809 whole entry): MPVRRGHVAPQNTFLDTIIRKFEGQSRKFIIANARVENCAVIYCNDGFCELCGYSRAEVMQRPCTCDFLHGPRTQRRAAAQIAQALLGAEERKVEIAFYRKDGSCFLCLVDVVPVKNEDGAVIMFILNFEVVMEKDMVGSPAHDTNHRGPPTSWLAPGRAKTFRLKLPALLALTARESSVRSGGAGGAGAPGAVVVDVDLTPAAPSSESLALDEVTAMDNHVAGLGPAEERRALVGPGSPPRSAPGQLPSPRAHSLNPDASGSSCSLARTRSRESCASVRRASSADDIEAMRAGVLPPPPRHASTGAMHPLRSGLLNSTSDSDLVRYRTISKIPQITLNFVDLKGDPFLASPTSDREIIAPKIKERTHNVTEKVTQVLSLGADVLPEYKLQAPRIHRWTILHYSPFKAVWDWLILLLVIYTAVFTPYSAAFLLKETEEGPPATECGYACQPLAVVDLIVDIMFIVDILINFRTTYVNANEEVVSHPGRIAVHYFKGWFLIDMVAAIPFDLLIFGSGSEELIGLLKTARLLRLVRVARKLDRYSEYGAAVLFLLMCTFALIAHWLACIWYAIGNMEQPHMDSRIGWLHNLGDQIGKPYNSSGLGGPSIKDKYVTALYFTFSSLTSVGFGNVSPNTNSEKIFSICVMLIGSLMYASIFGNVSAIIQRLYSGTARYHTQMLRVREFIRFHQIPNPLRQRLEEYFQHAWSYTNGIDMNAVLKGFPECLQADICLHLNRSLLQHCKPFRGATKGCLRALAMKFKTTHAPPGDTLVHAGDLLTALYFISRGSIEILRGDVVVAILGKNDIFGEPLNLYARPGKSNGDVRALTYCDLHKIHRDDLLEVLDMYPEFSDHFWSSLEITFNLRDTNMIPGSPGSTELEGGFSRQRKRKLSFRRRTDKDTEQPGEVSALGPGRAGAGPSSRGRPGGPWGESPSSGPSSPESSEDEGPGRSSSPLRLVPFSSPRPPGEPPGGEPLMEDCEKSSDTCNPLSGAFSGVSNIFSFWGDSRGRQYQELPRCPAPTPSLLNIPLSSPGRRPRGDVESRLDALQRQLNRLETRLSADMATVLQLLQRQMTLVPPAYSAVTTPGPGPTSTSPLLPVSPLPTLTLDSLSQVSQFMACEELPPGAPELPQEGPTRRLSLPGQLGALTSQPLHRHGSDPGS
Chain of DOR (δ-opioid receptor) (P41143 whole entry): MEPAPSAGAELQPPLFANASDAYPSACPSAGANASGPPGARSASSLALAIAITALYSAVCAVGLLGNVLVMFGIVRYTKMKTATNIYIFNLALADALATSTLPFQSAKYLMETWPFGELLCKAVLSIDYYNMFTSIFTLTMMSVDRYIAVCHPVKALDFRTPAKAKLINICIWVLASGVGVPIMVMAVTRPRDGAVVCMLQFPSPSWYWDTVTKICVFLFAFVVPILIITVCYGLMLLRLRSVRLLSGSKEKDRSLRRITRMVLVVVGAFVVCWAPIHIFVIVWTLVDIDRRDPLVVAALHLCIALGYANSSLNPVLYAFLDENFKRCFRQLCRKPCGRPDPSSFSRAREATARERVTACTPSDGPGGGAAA

As to `O=C(O)c1cc(-c2ccc(C3CCNCC3)cc2)c2ccc(-c3ccc(C(F)(F)F)cc3)cc2c1` [Compound 1a, 4-[4-(4-piperidinyl)phenyl]-7-[4-(trifluoromethyl)phenyl]-2-naphthalene-carboxylic acid], the “solubility in DMSO at 20 mg mL^−1” value was “could not dissolve”. Further, the “effect on chronic pain in the CCI model” value in [1] was “effective in reducing chronic pain”. Moreover, the “eosinophil counts in the BALF / efficacy in asthma model” value in [2] is “reduced”. The compound also came in with an IC50 against hERG above 30 µM.
Turning to `CC(=O)N1CCC(c2ccc(-c3cc(C(=O)O)cc4cc(-c5ccc(C(F)(F)F)cc5)ccc34)cc2)CC1` [Compound 1b, reference compound], in series [1], the “effect on chronic pain in the CCI model” value is listed as “effective in reducing chronic pain”. In addition, the “eosinophil counts in the BALF / efficacy in asthma model” value in series [2] is on record as “no significant reduction”.
On to `CC(=O)Nc1ccc(-c2cc(C(=O)O)cc(-n3cc(-c4ccc(C(F)(F)F)cc4)nn3)c2)cc1` [Compound 8, 4′-Acetamido-5-(4-(4-(trifluoromethyl)phenyl)-1H-1,2,3-triazol-1-yl)-[1,1′-biphenyl]-3-carboxylic Acid], for which the “hP2Y14R affinity in words” value at hP2Y14R [3] was “submicromolar affinity”.
On to `CC(C)(C)OC(=O)N1CCC(C(=O)Nc2ccc(-c3cc(C(=O)O)cc(-n4cc(-c5ccc(C(F)(F)F)cc5)nn4)c3)cc2)CC1` [Compound 12, 4′-(1-(tert-Butoxycarbonyl)piperidine-4-carboxamido)-5-(4-(4-(trifluoromethyl)phenyl)-1H-1,2,3-triazol-1-yl)-[1,1′-biphenyl]-3-carboxylic Acid], for which the “fold weaker in binding than the parent amines” value on hP2Y14R [3] (N-Boc protected forms compared to 11 and 18) is above 100 fold.
For the compound `O=C(O)c1ccc(-c2cc(C(=O)O)cc(-n3cc(-c4ccc(C(F)(F)F)cc4)nn3)c2)cc1` [Compound 13, 5-(4-(4-(Trifluoromethyl)phenyl)-1H-1,2,3-triazol-1-yl)-[1,1′-bi-phenyl]-3,4′-dicarboxylic Acid], the “off-target interactions in the standard PDSP screen” value in [4] is reported as “did not show any off-target interactions”. Besides, on hP2Y14R [5], the IC50 was around 0.6 µM.
With `NCCCNC(=O)c1ccc(-c2cc(C(=O)O)cc(-n3cc(-c4ccc(C(F)(F)F)cc4)nn3)c2)cc1` [Compound 14, 4′-((3-Aminopropyl)carbamoyl)-5-(4-(4-(trifluoromethyl)-phenyl)-1H-1,2,3-triazol-1-yl)-[1,1′-biphenyl]-3-carboxylic Acid], the “fold lower affinity than thienyl derivative 4” value on hP2Y14R [3] (compared to 4) came to 3.5 fold. For the same compound, the “hP2Y14R affinity in words” value on hP2Y14R [3] is recorded as “submicromolar affinity”.
Regarding `NCCCc1ccc(-c2cc(C(=O)O)cc(-n3cc(-c4ccc(C(F)(F)F)cc4)nn3)c2)cc1` [Compound 18, 4′-(3-Aminopropyl)-5-(4-(4-(trifluoromethyl)phenyl)-1H-1,2,3-triazol-1-yl)-[1,1′-biphenyl]-3-carboxylic Acid], in [4], the “off-target interactions in the standard PDSP screen” value is recorded as “did not show any off-target interactions”. For the same compound, the “hP2Y14R affinity in words” value at hP2Y14R [3] is “submicromolar affinity”.
On to `NCC#Cc1ccc(-c2cc(C(=O)O)cc(-n3cc(-c4ccc(C(F)(F)F)cc4)nn3)c2)cc1` [Compound 19, 4′-(3-Aminoprop-1-yn-1-yl)-5-(4-(4-(trifluoromethyl)phenyl)-1H-1,2,3-triazol-1-yl)-[1,1′-biphenyl]-3-carboxylic Acid], for which the “off-target interactions in the standard PDSP screen” value in [4] is listed as “did not show any off-target interactions”. Also, at hP2Y14R [3], the “hP2Y14R affinity in words” value is listed as “submicromolar affinity”.
For the compound `O=C(O)c1cc(-c2ccc(CCCCO)cc2)cc(-n2cc(-c3ccc(C(F)(F)F)cc3)nn2)c1` [Compound 21, 4′-(4-Hydroxybutyl)-5-(4-(4-(trifluoromethyl)phenyl)-1H-1,2,3-triazol-1-yl)-[1,1′-biphenyl]-3-carboxylic Acid], the “hP2Y14R affinity in words” value at hP2Y14R [3] is listed as “bound weakly”.
As to `O=C(O)c1cc(-c2ccc(-c3cc(CO)on3)cc2)cc(-n2cc(-c3ccc(C(F)(F)F)cc3)nn2)c1` [Compound 29, 4′-(5-(Hydroxymethyl)isoxazol-3-yl)-5-(4-(4-(trifluoromethyl)-phenyl)-1H-1,2,3-triazol-1-yl)-[1,1′-biphenyl]-3-carboxylic Acid], at hP2Y14R [3], the “hP2Y14R affinity in words” value is given as “submicromolar affinity”. The compound also yielded a Ki on DOR (δ-opioid receptor) of 6.9 ± 1.9 µM. Besides, the “hydrophilicity gain compared to 1a” value in [6] is given as −1.06 cLogP units.
For `O=C(O)c1cc(-c2ccc(-c3nnn[nH]3)cc2)cc(-n2cc(-c3ccc(C(F)(F)F)cc3)nn2)c1` [Compound 31, 4′-(1H-Tetrazol-5-yl)-5-(4-(4-(trifluoromethyl)phenyl)-1H-1,2,3-triazol-1-yl)-[1,1′-biphenyl]-3-carboxylic Acid], the “hP2Y14R affinity in words” value on hP2Y14R [3] was “submicromolar affinity”.
`O=C(O)c1cc(-c2ccc(-c3cc(CO)on3)cc2)c2ccc(-c3ccc(C(F)(F)F)cc3)cc2c1` [Compound 32, 4-(4-(5-(Hydroxymethyl)isoxazol-3-yl)phenyl)-7-(4-(trifluoromethyl)phenyl)-2-naphthoic Acid]: the “eosinophil counts in the BALF / efficacy in asthma model” value in series [2] is “no significant reduction”. Besides, the clinical signs entry in series [7] (all rat groups at all time points (up to 24 h)) is on record as “normal”. Besides, the “Kel (1 h^−1)” value in series [7] (male Wistar rats, 0.5 mg kg^−1 i.v.) is recorded as 1.01 1 h^−1. In [7] (setting [10]), the “Cl” value was found to be 23.83 mL/min/kg, the “Kel (1 h^−1)” value was 0.096 1 h^−1 and the “Vd (mL kg^−1)” value was 14,900 mL kg^−1. In series [7] (setting [11]), the “Cl” value was found to be 23.67 mL/min/kg, the “Kel (1 h^−1)” value is 0.148 1 h^−1 and the “Vd” value was determined as 9.57 L/kg. For the same compound, in series [7] (setting [12]), the “Cl” value came to 33.83 mL/min/kg, the “Kel (1 h^−1)” value is 0.233 1 h^−1 and the “Vd” value was determined as 8.73 L/kg. This compound also gave a peak concentration in series [7] (rat, 10 mg kg^−1, i.p., 4 h post-injection) of 1.61 µM. Moreover, in the series “in vivo” (ip, 1 mg/kg), the AUC(0-t) at 24 h was determined as 650 ng·h/mL, the Cmax at 24 h came to 88.4 ng/mL and the half-life was 7.23 h. For the same compound, in “in vivo” (ip, 3 mg/kg), the AUC(0-inf) at 24 h was 2120 ng·h/mL, the AUC(0-t) at 24 h was 2060 ng·h/mL, the Cmax at 24 h was determined as 315 ng/mL and the half-life at 24 h is 4.68 h. Moreover, in the series “in vivo” (ip, 10 mg/kg), the AUC(0-inf) at 24 h stood at 4920 ng·h/mL, the AUC(0-t) at 24 h worked out at 4900 ng·h/mL, the maximum concentration (Cmax) at 24 h was 786 ng/mL and the half-life at 24 h was 2.98 h. In addition, in the series “in vivo” (iv, 0.5 mg/kg), the AUC(0-inf) at 24 h came out at 238 ng·h/mL, the area under the curve AUC(0-t) at 24 h came to 234 ng·h/mL, the Cmax at 24 h was 359 ng/mL and the Vd at 24 h is 2.09 L/kg. In the series “in vivo” (iv, 0.5 mg/kg), this compound gave a clearance at 24 h of 35.2 mL/min/kg and a half-life at 24 h of 0.689 h. Moreover, in series [6], the “hydrophilicity gain compared to 1a” value was −0.80 cLogP units. Further, the “maximal reversal of CCI-induced mechano-allodynia” value in [8] (10 μmol kg^−1 (4.9 mg kg^−1), i.p., 1 h post-injection) is reported as 71.0 ± 17.4%. The side effects entry in series [8] (10 μmol kg^−1, i.p.) was “No side effects were evident”. For the same compound, the “protection against CCI-induced mechano-allodynia at 3 or 5 h” value in series [8] (10 μmol kg^−1, i.p., 3 or 5 h post-injection) is “not statistically significant”.
As for `CN(C)C(=O)COC(=O)c1cc(-c2ccc(C3CCNCC3)cc2)cc(-n2cc(-c3ccc(C(F)(F)F)cc3)nn2)c1` [Compound 37a, 2-(Dimethylamino)-2-oxoethyl 4′-(Piperidin-4-yl)-5-(4-(4-(trifluoromethyl)phenyl)-1H-1,2,3-triazol-1-yl)-[1,1′-biphenyl]-3-carboxylate], in series [4], the “number of off-target interactions in the μM range” value turned out to be 18 and the “off-target interactions in the standard PDSP screen” value is “promiscuous in off-target binding”. Further, the “eosinophil counts in the BALF / efficacy in asthma model” value in series [2] was “lack of in vivo activity”. In series [2] (20 μmol kg^−1, i.p.), the “lymphocyte count in the BALF” value was “trended higher than in a vehicle control”.
On to `CN(C)C(=O)COC(=O)c1cc(-c2ccc(-c3cc(CO)on3)cc2)c2ccc(-c3ccc(C(F)(F)F)cc3)cc2c1` [Compound 37b, 2-(Dimethylamino)-2-oxoethyl 4-(4-(5-(Hydroxymethyl)isoxazol-3-yl)phenyl)-7-(4-(trifluoromethyl)phenyl)-2-naphthoate], for which the “eosinophil counts in the BALF / efficacy in asthma model” value in [2] was “significantly reduced eosinophils; also recorded: highly efficacious”. In addition, in [9], the “percent cleavage at 72 h” value is given as below 50% and the half-life at 1 mM was above 1.2 h.
Regarding `CC(=O)N1CCC(c2ccc(-c3cc(C(=O)OCC(=O)N(C)C)cc4cc(-c5ccc(C(F)(F)F)cc5)ccc34)cc2)CC1` [Compound 37c, 2-(Dimethylamino)-2-oxoethyl 4-(4-(1-Acetylpiperidin-4-yl)-phenyl)-7-(4-(trifluoromethyl)phenyl)-2-naphthoate], in series [2], the “eosinophil counts in the BALF / efficacy in asthma model” value is reported as “significantly reduced eosinophils; also recorded: highly efficacious”. Also, in series [9], the “percent cleavage at 72 h” value was below 50% and the half-life at 1 mM is above 1.2 h.

By IC50 is commonly meant the concentration at which inhibition is half-maximal. Broadly, the Ki is the equilibrium dissociation constant of an inhibitor or competing ligand from its target. Low values mean higher affinity, high ones lower affinity. Broadly, the AUC(0-t) is exposure summed from dosing to a finite time, without extrapolation to infinity. The term Cmax denotes the highest concentration seen after dosing. In general, half-life refers to how long it takes for the measured level to halve. In general, AUC(0-inf) refers to the area under the concentration-time curve extrapolated to infinity. The clearance is the volume of plasma or blood freed of the substance per unit of time. Low values mean a low capacity for elimination, high ones a high capacity for elimination.
